Among the data in patent publication US7435837B2, “Dihydrobenzofuranyl alkanamine derivatives and methods for using same” (Wyeth, priority 2003, dated 2008) are melting point values, retold here.

Counter-ions that a name gives are not always drawn. Where only a bound is given, the exact number is not on record here.

`NCC1Cc2c(cccc2-c2ccccc2)O1` (single isomer, unassigned; (+)) (as salt: hydrobromid) [Example 2, (+)-1-(4-phenyl-2,3-dihydro-1-benzofuran-2-yl)methanamine] registered a melting point of 225 to 226 °C.
The same measure for `CC(C)c1cccc2c1OC(CN)C2` (single isomer, unassigned; (-)) (as salt: hydrochloride) [Example 19, (−)-(7-isopropyl-2,3-dihydro-1-benzofuran-2-yl)methylamine]: 176 to 178 °C; for `Cc1ccccc1-c1cc(F)cc2c1OC(CN)C2` (single isomer, unassigned; (+)) (as salt: hydrochloride) [Example 105, (+)-1-[5-fluoro-7-(2-methylphenyl)-2,3-dihydro-1-benzofuran-2-yl]methanamine]: 227 to 230 °C; for `NCC1Cc2cc(Cl)cc(C3CCCCC3)c2O1` (racemic) (as salt: hydrochloride) [Example 11, (±)-(5-chloro-7-cyclohexyl-2,3-dihydro-1-benzofuran-2-yl)methylamine]: 210 to 213 °C.
In the case of `NCC1Cc2cccc(-c3ccc(C(F)(F)F)cc3)c2O1` (racemic) (as salt: hydrochloride) [Example 82, (±)-1 {7-[4-(trifluoromethyl)phenyl]-2,3-dihydro-1-benzofuran-2-yl}methanamine] it was > 250 °C; in that of `Cc1ccccc1-c1cc(F)cc2c1OC(CN)C2` (racemic) (as salt: hydrochloride) [Example 104, (±)-1-[5-fluoro-7-(2-methylphenyl)-2,3-dihydro-1-benzofuran-2-yl]methanamine], 229 to 234 °C.
On to `COc1cccc2c1OC(CN)C2` (racemic) (as salt: hydrochloride) [Example 7, (±)-1-(7-methoxy-2,3-dihydro-1-benzofuran-2-yl)methanamine], for which the melting point fell in the range of 168 to 171 °C.
In the case of `NCC1Cc2c(cccc2-c2ccccc2C(F)(F)F)O1` (racemic) (as salt: hydrochloride) [Example 122, (±)-1-{4-[2-(trifluoromethyl)phenyl]-2,3-dihydro-1-benzofuran-2-yl}methanamine] it was 213 to 215 °C; in that of `NCC1Cc2c(C(F)(F)F)ccc(Cl)c2O1` (racemic) (as salt: hydrochloride) [Example 14, (±)-[7-chloro-4-(trifluoromethyl)-2,3-dihydro-1-benzofuran-2-yl]methanamine], > 250 °C.
`NCC1Cc2c(F)ccc(-c3ccccc3)c2O1` (racemic) (as salt: hydrochloride) [Example 98, (±)-1-(4-fluoro-7-phenyl-2,3-dihydro-1-benzofuran-2-yl)methanamine] showed a melting point of 254 to 257 °C.
In the case of `NCC1Cc2cc(F)cc(-c3ccccc3Cl)c2O1` (single isomer, unassigned; (-)) (as salt: hydrochloride) [Example 102, (−)-1-[7-(2-chlorophenyl)-5-fluoro-2,3-dihydro-1-benzofuran-2-yl]methanamine] it was 206 to 209 °C.
Consider `NCC1Cc2cccc(-c3ccsc3)c2O1` (single isomer, unassigned; (-)) (as salt: hydrobromid) [Example 46, (−)-1-(7-thien-3-yl-2,3-dihydro-1-benzofuran-2-yl)methanamine], for which the melting point fell in the range of 234 to 235 °C.
The compound `NCC1Cc2cccc(-c3ccccc3)c2O1` (single isomer, unassigned; (-)) (as salt: hydrochloride) [Example 38, (−)-1-(7-phenyl-2,3-dihydro-1-benzofuran-2-yl)methanamine] yielded a melting point of 220 to 222 °C.
In the case of `NCC1Cc2c(cccc2-c2ccccc2)O1` (racemic) (as salt: hydrochloride) [Example 1, (±)-1-(4-phenyl-2,3-dihydro-1-benzofuran-2-yl)methanamine] it was 229 to 230 °C.

The melting point is the temperature of the solid-liquid transition.
